Assay results: US9714236B2, “Compounds and methods for inhibiting JAK” (AstraZeneca AB, priority 2015, dated 2017)

Tests used:
Format in all cases: biochemical
[1] = target: recombinant JAK1 (amino acids 866-1154) (Homo sapiens (Human), UniProt P23458); assay: Enzyme inhibition studies, JAK1 (peptide phosphorylation, Caliper LC3000); settings: ATP concentration not given (assayed at ATP Km 55 μM and at 5 mM)
Description: (§1) Enzyme inhibition studies were performed using recombinant JAK1 (amino acids 866-1154, Life Technologies, #PV4774, Carlsbad, Calif.), JAK2 (amino acids 831-1132), or JAK3 (amino acids 781-1124) under buffer conditions of 50 mM HEPES pH 7.3, 1 mM DTT, 0.01% Tween® 20, 50 μg/mL BSA, and 10 mM MgCl2. JAK enzyme was expressed as an N-terminal GST fusion in insect cells and purified by glutathione-affinity and size-exclusion chromatographies. […] Phosphorylated and unphosphorylated peptides were separated and quantified by a Caliper LC3000 system (Caliper Life Sciences, MA) for calculating percent inhibition.

[2] = target: recombinant JAK2 (amino acids 831-1132) (Homo sapiens (Human), UniProt O60674); assay: Enzyme inhibition studies, JAK2 (peptide phosphorylation, Caliper LC3000); settings: ATP concentration of the tabulated values not stated (assayed at ATP Km 15 μM and at 5 mM)
recombinant JAK2 (amino acids 831-1132), sequence (O60674 831-1132): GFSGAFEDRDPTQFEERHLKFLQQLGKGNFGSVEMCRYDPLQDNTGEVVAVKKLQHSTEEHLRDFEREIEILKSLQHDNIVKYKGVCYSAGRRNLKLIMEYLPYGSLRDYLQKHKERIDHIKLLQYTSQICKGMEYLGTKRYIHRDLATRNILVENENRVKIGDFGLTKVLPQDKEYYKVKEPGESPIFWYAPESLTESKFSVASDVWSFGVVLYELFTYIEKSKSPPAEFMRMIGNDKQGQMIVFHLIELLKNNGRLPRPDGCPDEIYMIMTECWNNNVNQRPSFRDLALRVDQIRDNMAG
Description: as §1

[3] = target: recombinant JAK3 (amino acids 781-1124) (Homo sapiens (Human), UniProt P52333); assay: Enzyme inhibition studies, JAK3 (peptide phosphorylation, Caliper LC3000); settings: ATP concentration of the tabulated values not stated (assayed at ATP Km 3 μM and at 5 mM)
recombinant JAK3 (amino acids 781-1124), sequence (P52333 781-1124): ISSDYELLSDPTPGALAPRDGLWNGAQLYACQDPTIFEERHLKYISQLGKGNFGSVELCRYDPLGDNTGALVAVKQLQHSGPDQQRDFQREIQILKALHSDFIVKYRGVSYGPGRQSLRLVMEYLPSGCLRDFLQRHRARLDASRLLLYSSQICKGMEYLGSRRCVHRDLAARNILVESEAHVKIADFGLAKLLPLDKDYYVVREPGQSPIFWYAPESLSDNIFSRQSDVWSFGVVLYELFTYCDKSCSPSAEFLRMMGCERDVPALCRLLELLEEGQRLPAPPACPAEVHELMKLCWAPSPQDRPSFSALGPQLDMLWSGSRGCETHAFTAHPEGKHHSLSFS
Description: as §1

recombinant JAK1 (amino acids 866-1154), sequence (P23458 866-1154): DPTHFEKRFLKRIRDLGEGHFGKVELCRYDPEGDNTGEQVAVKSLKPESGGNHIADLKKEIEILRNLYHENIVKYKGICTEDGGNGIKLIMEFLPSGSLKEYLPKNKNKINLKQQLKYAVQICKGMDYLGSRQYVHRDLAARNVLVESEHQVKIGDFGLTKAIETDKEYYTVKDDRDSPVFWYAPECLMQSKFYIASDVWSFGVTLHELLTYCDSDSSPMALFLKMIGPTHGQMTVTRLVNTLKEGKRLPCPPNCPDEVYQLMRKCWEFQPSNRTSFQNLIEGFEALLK

| Structure (SMILES) | IC50 [1] | IC50 [2] | IC50 [3] |
| --- | --- | --- | --- |
| COc1nn(C)cc1Nc1ncc(C)c(-c2c[nH]c3c(NC(=O)[C@@H](C)N4CCN(C)[C@H](C)C4)cccc23)n1 [Example 18, (2R)-2-[(3R)-3,4-dimethylpiperazin-1-yl]-N-(3-{2-[(3-methoxy-1-methyl-1H-pyrazol-4-yl)amino]-5-methylpyrimidin-4-yl}-1H-indol-7-yl)propanamide] | 0.057 µM | 17.3 µM | > 30 µM |
| COc1nn(C)cc1Nc1ncc(C)c(-c2c[nH]c3c(NC(=O)[C@@H](C)N4CCN(C)C[C@@H]4C)cccc23)n1 [Example 19, (2R)-2-[(2S)-2,4-dimethylpiperazin-1-yl]-N-(3-{2-[(3-methoxy-1-methyl-1H-pyrazol-4-yl)amino]-5-methylpyrimidin-4-yl}-1H-indol-7-yl)propanamide] | 0.296 µM | > 30 µM | > 30 µM |
| CCOc1nn(C)cc1Nc1ncc(C)c(-c2c[nH]c3c(NC(=O)[C@@H](C)N4CCN(CC)CC4)cccc23)n1 [Example 20, (2R)-N-(3-{2-[(3-ethoxy-1-methyl-1H-pyrazol-4-yl)amino]-5-methylpyrimidin-4-yl}-1H-indol-7-yl)-2-(4-ethylpiperazin-1-yl)propanamide] | 0.051 µM | 17.2 µM | > 30 µM |
| CCOc1nn(C)cc1Nc1ncc(C)c(-c2c[nH]c3c(NC(=O)[C@@H](C)N4CCN(CCOC)CC4)cccc23)n1 [Example 21, (2R)-N-(3-{2-[(3-ethoxy-1-methyl-1H-pyrazol-4-yl)amino]-5-methylpyrimidin-4-yl}-1H-indol-7-yl)-2-[4-(2-methoxyethyl)piperazin-1-yl]propanamide] | 0.184 µM | > 30 µM | > 30 µM |
| CCOc1nn(C)cc1Nc1ncc(C)c(-c2c[nH]c3c(NC(=O)[C@@H](C)N4CCN(C)C[C@@H]4C)cccc23)n1 [Example 22, (2R)-2-[(2S)-2,4-dimethylpiperazin-1-yl]-N-(3-{2-[(3-ethoxy-1-methyl-1H-pyrazol-4-yl)amino]-5-methylpyrimidin-4-yl}-1H-indol-7-yl)propanamide] | 0.49 µM | > 30 µM | > 30 µM |
| CCOc1nn(C)cc1Nc1ncc(C)c(-c2c[nH]c3c(NC(=O)[C@@H](C)N4CCN(C)C[C@H]4C)cccc23)n1 [Example 23, (2R)-2-[(2R)-2,4-dimethylpiperazin-1-yl]-N-(3-{2-[(3-ethoxy-1-methyl-1H-pyrazol-4-yl)amino]-5-methylpyrimidin-4-yl}-1H-indol-7-yl)propanamide] | 0.029 µM | 25.7 µM | > 30 µM |
| CCOc1nn(C)cc1Nc1ncc(C)c(-c2c[nH]c3c(NC(=O)[C@@H](C)N4CCN(C)[C@H](C)C4)cccc23)n1 [Example 24, (2R)-2-[(3R)-3,4-dimethylpiperazin-1-yl]-N-(3-{2-[(3-ethoxy-1-methyl-1H-pyrazol-4-yl)amino]-5-methylpyrimidin-4-yl}-1H-indol-7-yl)propanamide] | 0.113 µM | > 30 µM | > 30 µM |
| COc1nn(C)cc1Nc1ncc(F)c(-c2c[nH]c3c(NC(=O)[C@@H](C)N4CCN(C)CC4)cccc23)n1 [Example 25, (2R)-N-(3-{5-Fluoro-2-[(3-methoxy-1-methyl-1H-pyrazol-4-yl)amino]pyrimidin-4-yl}-1H-indol-7-yl)-2-(4-methylpiperazin-1-yl)propanamide] | 0.019 µM | 6.62 µM | > 30 µM |
| COc1nn(C)cc1Nc1nccc(-c2c[nH]c3c(NC(=O)[C@@H](C)N4CCN(C)[C@@H](C)C4)cccc23)n1 [Example 26, (2R)-2-[(3S)-3,4-dimethylpiperazin-1-yl]-N-(3-{2-[(3-methoxy-1-methyl-1H-pyrazol-4-yl)amino]pyrimidin-4-yl}-1H-indol-7-yl)propanamide] | 0.069 µM | 16.7 µM | > 30 µM |
| COCCN1CCN([C@H](C)C(=O)Nc2cccc3c(-c4ccnc(Nc5cn(C)nc5OC)n4)c[nH]c23)CC1 [Example 27, (2R)-2-[4-(2-methoxyethyl)piperazin-1-yl]-N-(3-{2-[(3-methoxy-1-methyl-1H-pyrazol-4-yl)amino]pyrimidin-4-yl}-1H-indol-7-yl)propanamide] | 0.575 µM | > 30 µM | > 30 µM |
| CCN1CCN([C@H](C)C(=O)Nc2cccc3c(-c4ccnc(Nc5cn(C)nc5OC)n4)c[nH]c23)CC1 [Example 28] | 0.106 µM | 11.8 µM | > 30 µM |
| COc1nn(C)cc1Nc1nccc(-c2c[nH]c3c(NC(=O)[C@@H](C)N4CCN(C)[C@H](C)C4)cccc23)n1 [Example 30, (2R)-2-[(3R)-3,4-dimethylpiperazin-1-yl]-N-(3-{2-[(3-methoxy-1-methyl-1H-pyrazol-4-yl)amino]pyrimidin-4-yl}-1H-indol-7-yl)propanamide] | 0.304 µM | > 30 µM | > 30 µM |

Further lines, results first:

| IC50 [1] | IC50 [2] | IC50 [3] | Structure (SMILES) |
| --- | --- | --- | --- |
| 0.015 µM | 19.8 µM | > 30 µM | CCOc1nn(C)cc1Nc1ncc(C)c(-c2c[nH]c3c(NC(=O)[C@@H](C)N4CCN(C)[C@@H](C)C4)cccc23)n1 [Example 31a, (2R)-2-[(3S)-3,4-dimethylpiperazin-1-yl]-N-(3-{2-[(3-ethoxy-1-methyl-1H-pyrazol-4-yl)amino]-5-methylpyrimidin-4-yl}-1H-indol-7-yl)propanamide] |
| 0.454 µM | > 30 µM | > 30 µM | CCOc1nn(C)cc1Nc1ncc(C)c(-c2c[nH]c3c(NC(=O)[C@H](C)N4CCN(C)[C@@H](C)C4)cccc23)n1 [Example 31b, (2S)-2-[(3S)-3,4-dimethylpiperazin-1-yl]-N-(3-{2-[(3-ethoxy-1-methyl-1H-pyrazol-4-yl)amino]-5-methylpyrimidin-4-yl}-1H-indol-7-yl)propanamide] |
| 0.272 µM | > 30 µM | > 30 µM | COc1nn(C)cc1Nc1ncc(C)c(-c2c[nH]c3c(NC(=O)[C@H](C)N4CCN(C)CC4)cccc23)n1 [Example 33, (2S)-N-(3-{2-[(3-methoxy-1-methyl-1H-pyrazol-4-yl)amino]-5-methylpyrimidin-4-yl}-1H-indol-7-yl)-2-(4-methylpiperazin-1-yl)propanamide] |
| 0.01 µM | 5.37 µM | > 30 µM | COc1nn(C)cc1Nc1ncc(C)c(-c2c[nH]c3c(NC(=O)[C@@H](C)N4CCN(C)CC4)cccc23)n1 [Example 34, (2R)-N-(3-{2-[(3-Methoxy-1-methyl-1H-pyrazol-4-yl)amino]-5-methylpyrimidin-4-yl}-1H-indol-7-yl)-2-(4-methylpiperazin-1-yl)propanamide] |
| 0.02 µM | 17 µM | > 30 µM | CCOc1nn(C)cc1Nc1ncc(C)c(-c2c[nH]c3c(NC(=O)[C@@H](C)N4CCN(C)CC4)cccc23)n1 [Example 35, (2R)-N-(3-{2-[(3-ethoxy-1-methyl-1H-pyrazol-4-yl)amino]-5-methylpyrimidin-4-yl}-1H-indol-7-yl)-2-(4-methylpiperazin-1-yl)propanamide] |
| 0.007 µM | 1.76 µM | 19.1 µM | COc1nn(C)cc1Nc1ncc(Cl)c(-c2c[nH]c3c(NC(=O)[C@@H](C)N4CCN(C)CC4)cccc23)n1 [Example 36, (2R)-N-(3-{5-chloro-2-[(3-methoxy-1-methyl-1H-pyrazol-4-yl)amino]pyrimidin-4-yl}-1H-indol-7-yl)-2-(4-methylpiperazin-1-yl)propanamide] |
| 0.008 µM | 1.58 µM | 15.4 µM | COc1nn(C)cc1Nc1ncc(Br)c(-c2c[nH]c3c(NC(=O)[C@@H](C)N4CCN(C)CC4)cccc23)n1 [Example 37, (2R)-N-(3-{5-bromo-2-[(3-methoxy-1-methyl-1H-pyrazol-4-yl)amino]pyrimidin-4-yl}-1H-indol-7-yl)-2-(4-methylpiperazin-1-yl)propanamide] |
| 0.013 µM | 6.48 µM | > 30 µM | COc1nn(C)cc1Nc1ncc(C)c(-c2c[nH]c3c(NC(=O)[C@@H](C)N4CCN(C)C[C@H]4C)cccc23)n1 [Example 38, (2R)-2-[(2R)-2,4-dimethylpiperazin-1-yl]-N-(3-{2-[(3-methoxy-1-methyl-1H-pyrazol-4-yl)amino]-5-methylpyrimidin-4-yl}-1H-indol-7-yl)propanamide] |
| 0.055 µM | 25.5 µM | > 30 µM | CCOc1nn(C)cc1Nc1ncc(F)c(-c2c[nH]c3c(NC(=O)[C@@H](C)N4CCN(C)CC4)cccc23)n1 [Example 39, (2R)-N-(3-{2-[(3-ethoxy-1-methyl-1H-pyrazol-4-yl)amino]-5-fluoropyrimidin-4-yl}-1H-indol-7-yl)-2-(4-methylpiperazin-1-yl)propanamide] |
| 0.024 µM | 8.93 µM | > 30 µM | CCOc1nn(C)cc1Nc1ncc(Cl)c(-c2c[nH]c3c(NC(=O)[C@@H](C)N4CCN(C)CC4)cccc23)n1 [Example 40, (2R)-N-(3-{5-chloro-2-[(3-ethoxy-1-methyl-1H-pyrazol-4-yl)amino]pyrimidin-4-yl}-1H-indol-7-yl)-2-(4-methylpiperazin-1-yl)propanamide] |
| < 0.005 µM | 2.58 µM | > 30 µM | Cc1cnc(Nc2cn(C)nc2C)nc1-c1c[nH]c2c(NC(=O)[C@@H](C)N3CCN(C)CC3)cccc12 [Example 41, (2R)-N-(3-{2-[(1,3-dimethyl-1H-pyrazol-4-yl)amino]-5-methylpyrimidin-4-yl}-1H-indol-7-yl)-2-(4-methylpiperazin-1-yl)propanamide] |
